Here are results for two molecules from ChEMBL document CHEMBL1132638, “New (sulfonyloxy)piperazinyldibenzazepines as potential atypical antipsychotics: chemistry and pharmacological evaluation” (J Med Chem, 1999).

Series [1] concerns the target D(3) dopamine receptor (Homo sapiens, UniProt P35462).
Description: Binding affinity towards human Dopamine receptor D3
The target in series [2] is 5-hydroxytryptamine receptor 2A (Rattus norvegicus, UniProt P14842). As to the kind of experiment: biochemical.
Description: Binding affinity towards 5-hydroxytryptamine 2A receptor from rat frontal cortex using [3H]ketanserin as radioligand
Series [3] is described as follows: Partition coefficient (logP). The series is classed as physicochemical. The conditions noted are these: octanol/water.
In series [4] the target is T1, D(4) dopamine receptor (Homo sapiens, UniProt P21917).
T1 sequence (P21917 whole entry): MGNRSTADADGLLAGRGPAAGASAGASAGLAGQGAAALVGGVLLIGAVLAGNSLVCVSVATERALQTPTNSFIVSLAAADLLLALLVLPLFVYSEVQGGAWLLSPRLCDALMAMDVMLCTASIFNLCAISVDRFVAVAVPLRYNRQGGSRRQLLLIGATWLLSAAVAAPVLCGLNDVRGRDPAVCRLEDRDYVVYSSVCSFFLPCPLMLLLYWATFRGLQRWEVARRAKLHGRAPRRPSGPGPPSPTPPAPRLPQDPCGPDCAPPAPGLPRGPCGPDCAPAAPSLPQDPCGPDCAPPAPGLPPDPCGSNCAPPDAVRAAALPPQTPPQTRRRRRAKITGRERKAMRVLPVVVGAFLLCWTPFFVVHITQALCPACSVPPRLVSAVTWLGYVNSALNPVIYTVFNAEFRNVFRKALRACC
As to the kind of experiment: Compound was tested in vitro for its binding affinity towards human Dopamine receptor D4.2.

Series [5] has as its target D(2) dopamine receptor (Homo sapiens, UniProt P14416). Description: Compound was tested in vitro for its binding affinity towards human Dopamine receptor D2.
The target of series [6] is T2, Adrenergic receptor alpha-1 (Rattus norvegicus, UniProt P15823+P23944+P43140).
T2 sequence (P15823 whole entry): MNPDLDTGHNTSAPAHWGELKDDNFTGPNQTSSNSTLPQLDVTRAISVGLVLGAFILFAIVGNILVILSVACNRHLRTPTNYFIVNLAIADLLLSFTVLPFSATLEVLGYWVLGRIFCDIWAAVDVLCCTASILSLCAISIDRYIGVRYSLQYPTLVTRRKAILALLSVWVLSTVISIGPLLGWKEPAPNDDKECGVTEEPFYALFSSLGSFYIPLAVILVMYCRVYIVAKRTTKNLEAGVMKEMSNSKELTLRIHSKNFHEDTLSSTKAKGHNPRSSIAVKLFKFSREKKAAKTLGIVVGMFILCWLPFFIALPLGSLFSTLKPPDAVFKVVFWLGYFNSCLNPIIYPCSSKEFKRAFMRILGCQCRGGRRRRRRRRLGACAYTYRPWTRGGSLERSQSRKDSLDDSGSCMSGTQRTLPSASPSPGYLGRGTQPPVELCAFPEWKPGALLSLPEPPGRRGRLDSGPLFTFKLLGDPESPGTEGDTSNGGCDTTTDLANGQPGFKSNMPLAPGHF
T2 sequence (P23944 whole entry): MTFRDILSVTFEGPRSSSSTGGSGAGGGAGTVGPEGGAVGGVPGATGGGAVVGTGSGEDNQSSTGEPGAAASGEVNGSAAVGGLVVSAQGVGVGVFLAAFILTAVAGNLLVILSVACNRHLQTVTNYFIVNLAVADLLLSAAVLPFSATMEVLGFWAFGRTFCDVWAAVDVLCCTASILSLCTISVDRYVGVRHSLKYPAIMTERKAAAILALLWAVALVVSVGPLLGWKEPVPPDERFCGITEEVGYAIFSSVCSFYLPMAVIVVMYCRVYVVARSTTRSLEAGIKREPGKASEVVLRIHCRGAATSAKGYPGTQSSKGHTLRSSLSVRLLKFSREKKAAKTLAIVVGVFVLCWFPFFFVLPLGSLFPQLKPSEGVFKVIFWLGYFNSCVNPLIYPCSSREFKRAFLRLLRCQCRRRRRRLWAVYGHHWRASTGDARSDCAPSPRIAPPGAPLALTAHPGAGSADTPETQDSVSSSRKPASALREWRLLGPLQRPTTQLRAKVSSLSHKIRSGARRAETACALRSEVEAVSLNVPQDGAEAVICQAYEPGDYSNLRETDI
T2 sequence (P43140 whole entry): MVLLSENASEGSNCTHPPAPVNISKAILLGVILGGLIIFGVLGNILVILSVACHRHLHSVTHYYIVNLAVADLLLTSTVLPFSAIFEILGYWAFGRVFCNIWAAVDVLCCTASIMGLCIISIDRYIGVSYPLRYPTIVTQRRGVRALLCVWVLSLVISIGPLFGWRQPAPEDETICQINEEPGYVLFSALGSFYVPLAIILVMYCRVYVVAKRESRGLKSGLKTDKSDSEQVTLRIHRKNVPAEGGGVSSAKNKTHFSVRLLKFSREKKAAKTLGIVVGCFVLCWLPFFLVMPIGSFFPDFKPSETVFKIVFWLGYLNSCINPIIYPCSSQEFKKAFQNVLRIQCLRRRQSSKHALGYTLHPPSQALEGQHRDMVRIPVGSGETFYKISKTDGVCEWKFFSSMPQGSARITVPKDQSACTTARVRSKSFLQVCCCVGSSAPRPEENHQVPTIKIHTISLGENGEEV
Description: Binding affinity towards alpha-1 adrenergic receptor from rat brain membranes using [3H]prazosin as radioligand.

The test system of series [7] is Rattus norvegicus. As to the kind of experiment: Compound is measured for inhibition of catalepsy in rat by peroral administration of compound. The series is classed as functional. The conditions noted are these: po.
Series [8] has as its target T3, Muscarinic acetylcholine receptor M1 (Homo sapiens, UniProt P11229).
T3 sequence (P11229 whole entry): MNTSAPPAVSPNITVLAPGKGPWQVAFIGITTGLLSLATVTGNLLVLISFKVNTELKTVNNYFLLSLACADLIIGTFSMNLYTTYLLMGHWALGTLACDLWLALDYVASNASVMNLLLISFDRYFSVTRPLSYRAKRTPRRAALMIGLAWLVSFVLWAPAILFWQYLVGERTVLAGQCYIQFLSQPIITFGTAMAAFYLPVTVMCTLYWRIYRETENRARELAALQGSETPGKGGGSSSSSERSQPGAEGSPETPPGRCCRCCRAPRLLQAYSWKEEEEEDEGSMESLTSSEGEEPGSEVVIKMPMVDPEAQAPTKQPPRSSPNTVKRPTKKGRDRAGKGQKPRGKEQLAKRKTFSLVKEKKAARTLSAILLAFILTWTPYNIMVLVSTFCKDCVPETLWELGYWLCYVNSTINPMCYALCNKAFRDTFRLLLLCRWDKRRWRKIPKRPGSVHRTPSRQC
As to the kind of experiment: Inhibition of binding of 1.0 nM [3H]pirenzepine to cloned human Muscarinic acetylcholine receptor M1 expressed in membranes from CHO-K1 cells. The series is classed as cell-based.

Series [9] addresses D(1A) dopamine receptor (Rattus norvegicus, UniProt P18901). As to the kind of experiment: biochemical.
Description: Binding affinity towards D1 CNS receptor of rat corpus striatum using [3H]SCH-23390 as radioligand
For series [10], the species on record is Rattus norvegicus. Description: Ex vivo accumulation of L-DOPA was measured in striatum of rats.
Series [11] deals with T1, D(4) dopamine receptor. As to the kind of experiment: Binding affinity towards human D4.2 receptor.
Series [12] relates to Mus musculus. As to the kind of experiment: Inhibition of apomorphine induced climbing affects in mice by administering the compound perorally in mice. The series is classed as functional. The note with it: Mus musculus, po; read-out: ED50.
In series [13] the test system is Mus musculus. As to the kind of experiment: Inhibition of apomorphine induced climbing affects in mice by administering the compound subcutaneously in mice. The series is classed as functional. The conditions noted are these: sc.
Series [14] deals with Histamine H1 receptor (Rattus norvegicus, UniProt P31390). Description: Binding affinity towards histamine H1 receptor from rat brain membranes using [3H]mepyramine as radioligand.
Chain of Histamine H1 receptor (P31390 whole entry): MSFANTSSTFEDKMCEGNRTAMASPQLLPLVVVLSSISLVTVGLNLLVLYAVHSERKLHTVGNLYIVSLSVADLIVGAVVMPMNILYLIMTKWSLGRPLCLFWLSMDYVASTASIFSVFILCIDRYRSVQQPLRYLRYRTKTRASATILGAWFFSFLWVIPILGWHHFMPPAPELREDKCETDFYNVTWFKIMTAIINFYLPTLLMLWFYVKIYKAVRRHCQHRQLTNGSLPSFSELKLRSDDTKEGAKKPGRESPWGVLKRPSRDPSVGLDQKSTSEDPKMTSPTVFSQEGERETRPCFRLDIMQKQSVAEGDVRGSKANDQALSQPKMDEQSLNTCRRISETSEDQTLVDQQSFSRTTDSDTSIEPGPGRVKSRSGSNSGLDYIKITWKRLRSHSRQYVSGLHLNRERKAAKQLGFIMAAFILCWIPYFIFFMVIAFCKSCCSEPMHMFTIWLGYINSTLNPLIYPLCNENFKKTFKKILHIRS
Series [15] is described as follows: Delta ED50 value by peroral administration (ED50 catalepsy-ED50 Climbing). The series is classed as functional.
Series [16] concerns the target T4, 5-hydroxytryptamine receptor 2C (Rattus norvegicus, UniProt P08909).
T4 sequence (P08909 whole entry): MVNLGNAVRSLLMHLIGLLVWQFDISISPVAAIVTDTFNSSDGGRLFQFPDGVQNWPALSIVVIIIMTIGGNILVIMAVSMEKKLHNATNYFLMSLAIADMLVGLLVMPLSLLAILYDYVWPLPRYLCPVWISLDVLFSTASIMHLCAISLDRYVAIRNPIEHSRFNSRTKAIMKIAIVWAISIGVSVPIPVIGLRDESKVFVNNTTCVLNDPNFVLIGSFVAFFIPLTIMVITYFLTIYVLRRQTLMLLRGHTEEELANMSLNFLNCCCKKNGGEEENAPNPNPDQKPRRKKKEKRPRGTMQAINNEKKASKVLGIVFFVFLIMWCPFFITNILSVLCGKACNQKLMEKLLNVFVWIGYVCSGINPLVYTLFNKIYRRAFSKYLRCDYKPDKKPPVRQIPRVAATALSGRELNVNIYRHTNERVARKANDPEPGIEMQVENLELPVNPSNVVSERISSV
Description: Binding affinity towards 5-HT2C receptor from rat using [3H]mesulergine as radioligand

Series [17] relates to Rattus norvegicus. Description: Catalepsy percent score in rat by peroral administration of 100 mg/Kg of compound.
Series [18] can be described thus: Therapeutic ratio by Peroral dose of administration (quotient ED50 catalepsy/ED50 climbing). The series is classed as ADME, organism-based. The note with it: in vivo, po; read-out: Therapeutic ratio.

Chain of 5-hydroxytryptamine receptor 2A (P14842 whole entry): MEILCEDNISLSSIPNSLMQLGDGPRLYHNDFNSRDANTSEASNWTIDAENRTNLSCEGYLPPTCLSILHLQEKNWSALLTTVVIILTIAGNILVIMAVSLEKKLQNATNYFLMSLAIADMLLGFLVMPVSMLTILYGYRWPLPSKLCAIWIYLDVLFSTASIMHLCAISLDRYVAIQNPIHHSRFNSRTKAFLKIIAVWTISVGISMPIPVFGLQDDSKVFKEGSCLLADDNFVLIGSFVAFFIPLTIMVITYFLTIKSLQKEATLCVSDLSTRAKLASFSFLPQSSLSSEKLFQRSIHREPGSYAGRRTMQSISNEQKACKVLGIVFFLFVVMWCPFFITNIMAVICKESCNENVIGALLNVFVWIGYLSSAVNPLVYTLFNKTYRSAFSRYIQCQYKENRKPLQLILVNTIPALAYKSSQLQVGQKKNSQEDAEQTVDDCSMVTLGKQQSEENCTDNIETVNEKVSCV
Chain of D(3) dopamine receptor (P35462 whole entry): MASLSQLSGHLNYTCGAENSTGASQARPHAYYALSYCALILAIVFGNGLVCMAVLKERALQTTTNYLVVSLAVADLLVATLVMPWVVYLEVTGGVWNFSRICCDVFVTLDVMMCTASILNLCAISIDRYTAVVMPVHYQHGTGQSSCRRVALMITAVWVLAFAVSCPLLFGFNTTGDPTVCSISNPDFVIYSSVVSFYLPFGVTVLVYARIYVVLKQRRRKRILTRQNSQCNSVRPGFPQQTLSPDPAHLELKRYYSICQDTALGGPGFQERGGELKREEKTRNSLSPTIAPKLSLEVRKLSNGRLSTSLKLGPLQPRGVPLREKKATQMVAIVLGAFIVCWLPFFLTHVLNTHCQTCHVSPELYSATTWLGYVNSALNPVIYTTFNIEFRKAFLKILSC
Chain of D(2) dopamine receptor (P14416 whole entry): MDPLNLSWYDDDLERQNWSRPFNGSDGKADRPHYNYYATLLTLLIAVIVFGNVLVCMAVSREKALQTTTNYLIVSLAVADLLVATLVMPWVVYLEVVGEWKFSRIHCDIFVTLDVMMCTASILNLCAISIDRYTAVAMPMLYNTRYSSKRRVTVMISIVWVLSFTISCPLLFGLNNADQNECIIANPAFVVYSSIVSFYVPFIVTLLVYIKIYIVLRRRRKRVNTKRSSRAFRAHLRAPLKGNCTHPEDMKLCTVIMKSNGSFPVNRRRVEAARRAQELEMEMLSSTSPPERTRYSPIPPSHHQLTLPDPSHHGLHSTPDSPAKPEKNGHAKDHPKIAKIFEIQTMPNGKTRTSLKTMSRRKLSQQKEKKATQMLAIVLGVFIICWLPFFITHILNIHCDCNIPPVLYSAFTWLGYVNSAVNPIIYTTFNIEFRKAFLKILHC
Chain of D(1A) dopamine receptor (P18901 whole entry): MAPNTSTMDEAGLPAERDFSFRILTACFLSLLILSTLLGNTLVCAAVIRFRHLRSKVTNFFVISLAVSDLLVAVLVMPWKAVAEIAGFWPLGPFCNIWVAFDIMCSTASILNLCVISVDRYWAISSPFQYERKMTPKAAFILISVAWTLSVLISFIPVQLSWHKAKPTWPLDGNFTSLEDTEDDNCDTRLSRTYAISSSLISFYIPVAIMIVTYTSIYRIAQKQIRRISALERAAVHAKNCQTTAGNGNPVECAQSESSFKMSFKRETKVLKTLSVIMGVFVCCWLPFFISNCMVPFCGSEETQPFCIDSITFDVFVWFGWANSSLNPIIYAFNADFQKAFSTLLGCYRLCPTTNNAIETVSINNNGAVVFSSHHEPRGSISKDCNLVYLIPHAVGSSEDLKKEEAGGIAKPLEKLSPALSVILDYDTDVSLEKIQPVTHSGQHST

As usually defined, the IC50 is the point on the concentration scale where inhibition reaches its midpoint. High values mean weaker potency, low ones greater potency. One may read the logP as the decadic logarithm of the partition coefficient of the neutral form, usually between octanol and water. With `CN1CCN(C2=Nc3ccccc3Oc3ccc(OS(C)(=O)=O)cc32)CC1`, the IC50 in series [1] is 350 nM; in series [2], 230 nM; in [4], above 1000 nM; in series [5] it was above 1000 nM. In addition, the lipophilicity (logP) in series [3] amounted to 1.98.
For orientation: ED50 means the dose that gives a 50% effect, or the effect in half of the subjects. For `CN1CCN(C2=Nc3ccccc3Oc3ccc(OS(=O)(=O)C(F)(F)F)cc32)CC1`, the IC50 in series [1] amounted to 29 nM; in series [6], 27 nM; in series [8] it was 490 nM; in series [2] it was 48 nM; in series [9], 66 nM; in series [11] it was 150 nM. Further, the concentration for half-maximal inhibition (IC50) in series [14] is 120 nM; in [16] it was 100 nM. The median effective dose (ED50) turned out to be 28 mg/kg in series [7], 0.7 mg/kg in series [10], 1.3 mg/kg in [12] and 2.2 mg/kg in [13]. This molecule displayed a lipophilicity (logP) in series [3] of 3.76. In addition, the “Delta ED50” value in [15] worked out at 26.7 mg/kg. The Catalepsy in series [17] is listed as 32%. Also, the selectivity ratio in series [18] came to 21.5.
